Where a name gives a salt, the structure may show the parent alone.
Target: T1, γ-Secretase (Homo sapiens, UniProt P49768)
T1 construct: transfected H4 (human neuroglioma) cells stably expressing constructs containing wild-type and mutant forms of β-APP; endogenous in cells; host or cells: H4 human neuroglioma cells, stably transfected with beta-APP (the substrate, not the enzyme)
Test: Inhibition of γ-secretase: ELISA of β-AP made by transfected H4 cells in culture
Format: cell-based
Settings: H4 (human neuroglioma) cells expressing β-APP (Swedish variant typically), approximately 16 hours incubation, β-AP in conditioned medium by ELISA
Source text: Production and detection of β-AP made by cells in culture. The use of transfected H4 (human neuroglioma) cells stably expressing constructs containing wild-type and mutant forms of β-APP have been used to identify inhibitors of β-AP production. The Swedish variant of β-APP produces 5-7 fold more β-AP than the wild type and is typically used due to its enhanced signal. […] The capture antibody is typically a mouse monoclonal (IgG1/kβ-APPa). The antibody recognizes the carboxyl terminal epitope of β-AP. The specificity of the capture antibody ensures measurement of β-AP without interference by other secreted β-APP fragments that share amino acid sequence (β-AP1-16) with β-AP. The detecting antibody is typically an affinity purified rabbit polyclonal antibody, specific for the amino terminus of β-AP. In the cell-based assay conditioned medium from H4 cells is tested by ELISA for the quantity of β-AP present. The cell-based assay can be used to identify compounds that inhibit β-AP production. The assay should detect agents that inhibit cleavage at the β-secretase and/or the γ-secretase cleavage site as well as detecting any agent that interferes with the production and/or release of β-AP.
A typical ELISA-based assay requires plating of the transfected cells at a density sufficient for the rapid detection of the secreted β-AP (experimentally predetermined for a particular stable cell population) in a 96-well format. Cells are plated for at least six hours prior to the introduction of the test compound at which time the growth medium is replaced by fresh medium containing the agent to be tested. Test agents may typically consist of synthetic compounds, secondary metabolites from bacterial or fungal fermentation extracts, or extracts from plant or marine samples. All synthetic agents are initially screened at doses ranging from 10-100 μM or in the case of extracts at sufficient dilution to minimize cytotoxicity. Incubation of the cells with the test agent will continue for approximately 16 hours at which time equal aliquots of media from each sample well is removed and placed into a previously prepared ELISA plate for β-AP quantitation. The ELISA is carried out in a manner described by others (Haass, et al., 1992; Hawlow and Lane, 1988) and the β-AP signal quantitated. Results are obtained by analysis of the ELISA plate following development and comparison to the mock treated cell populations and samples in which known amounts of β-AP were added to construct a standard concentration curve. […] If a compound is found to be active, then a dose response experiment is performed to determine the lowest dose of compound necessary to elicit the inhibition of the production of β-AP.

CC(C)CNC(=O)[C@@H](C[C@H](O)[C@H](CC1CCCCC1)NC1CCC(C)CC1)C(C)C (relative stereo) [Example 40, [αS(αR*,γR*,δR*)]-γ-Hydroxy-δ-[(4-methylcyclohexyl)amino]-α-(1-methylethyl)-N-(2-methylpropyl)cyclohexanehexanamide]
Activity Rating (Inhibition of γ-Secretase): +++ (+++ < = 10)

CCCCNC(=O)[C@@H](C[C@H](O)[C@H](CC1CCCCC1)NCCC(C)CC)C(C)C (relative stereo) [Example 33, [αS-(αR*,γR*,δR*)]N-Butyl-γ-hydroxy-α-(1-methylethyl)-δ-[(3-methylpentyl)amino]cyclohexanehexanamide hydrochloride]
Activity Rating (Inhibition of γ-Secretase): +++ (+++ < = 10)

CCCCNC(=O)[C@@H](C[C@H](O)[C@H](CC1CCCCC1)NCc1cccc(C)c1)C(C)C (relative stereo) [Example 36, [αS-(αR*,γR*,δR*)]N-Butyl-γ-hydroxy-α-(1-methylethyl)-δ-[[(3-methylphenyl)methyl]amino]cyclohexanehexanamidehydrochloride]
Activity Rating (Inhibition of γ-Secretase): +++ (+++ < = 10)

CC(C)CCCN[C@@H](CC1CCCCC1)[C@@H](O)C[C@H](C(=O)NCC(C)(C)C)C(C)C (relative stereo) [Example 31, [αS-(αR*,γR*,δR*)]N-(2,2-dimethylpropyl)-γ-hydroxy-α-(1-methylethyl)-δ-[(4-methylpentyl)amino]cyclohexanehexanamide hydrochloride]
Activity Rating (Inhibition of γ-Secretase): +++ (+++ < = 10)

CCCCNC(=O)[C@H](CC1CCCCC1)C[C@H](O)[C@H](CC1CCCCC1)NCCCC(C)C (relative stereo) [Example 26, [αS-(αR*,γR*,δR*)]-N-Butyl-α-(cyclohexylmethyl)-γ-hydroxy-δ-[(4-methylpentyl)amino]cyclohexanehexanamide, hydrochloride]
Activity Rating (Inhibition of γ-Secretase): +++ (+++ < = 10)

CC(C)CCCN[C@@H](CC1CCCCC1)[C@@H](O)C[C@H](C(=O)NCCc1ccccc1)C(C)C (relative stereo) [Example 29, [αS-(αR*,γR*,δR*)]γ-hydroxy-α-(1-methylethyl)-δ-[(4-methylpentyl)amino]-N-(2-phenylethyl)cyclohexanehexanamide hydrochloride]
Activity Rating (Inhibition of γ-Secretase): +++ (+++ < = 10)

CCCCCN[C@@H](CC1CCCCC1)[C@@H](O)C[C@H](C(=O)NCCCC)C(C)C (relative stereo) [Example 45, [αS(αR*,γR*,δR*)]-N-Butyl-γ-hydroxy-α-(1-methylethyl)-δ-(pentylamino)cyclohexanehexanamide hydrochloride]
Activity Rating (Inhibition of γ-Secretase): +++ (+++ < = 10)

CCCCNC(=O)[C@@H](C[C@H](O)[C@H](CC1CCCCC1)NCCC1CCCCC1)C(C)C (relative stereo) [Example 48, [αS(αR*,γR*,δR*)]-N-Butyl-δ-[(3-cyclohexyl)ethyl]amino-γ-hydroxy-α-(1-methylethyl)cyclohexanehexanamide hydrochloride]
Activity Rating (Inhibition of γ-Secretase): +++ (+++ < = 10)

CC(C)CCC(C)N[C@@H](CC1CCCCC1)[C@@H](O)C[C@H](C(=O)NCC(C)C)C(C)C (relative stereo) [Example 41, [αS(αR*,γR*,δR*)]-γ-Hydroxy-δ-[(1,4-dimethylpentyl)amino]-α-(1-methylethyl)-N-(2-methylpropyl)cyclohexanehexanamide hydrochloride]
Activity Rating (Inhibition of γ-Secretase): +++ (+++ < = 10)

CCCCNC(=O)[C@@H](C[C@H](O)[C@H](CC1CCCCC1)NC1CCC(C(C)C)CC1)C(C)C (relative stereo) [Example 44, [αS(αR*,γR*,δR*)]-N-butyl-γ-hydroxy-α-(1-methylethyl)-δ-[[4-(1-methylethyl)cyclohexyl]amino]cyclohexanehexanamide hydrochloride]
Activity Rating (Inhibition of γ-Secretase): +++ (+++ < = 10)

CC(C)CNC(=O)[C@@H](C[C@H](O)[C@H](CC1CCCCC1)NC1CCC(C)C1)C(C)C (relative stereo) [Example 43, [αS(αR*,γR*,δR*)]-γ-Hydroxy-δ-[(3-methylcyclopentyl)amino]-α-(1-methylethyl)-N-(2-methylpropyl)cyclohexanehexanamide]
Activity Rating (Inhibition of γ-Secretase): +++ (+++ < = 10)

CCCCNC(=O)[C@@H](C[C@H](O)[C@H](CC1CCCCC1)NCCOC(C)C)C(C)C (relative stereo) [Example 39, [αS-(αR*,γR*,δR*)]N-Butyl-γ-hydroxy-δ-[2-(1-methylethoxy)ethyl]amino]-α-(1-methylethyl)cyclohexanehexanamidehydrochloride]
Activity Rating (Inhibition of γ-Secretase): + (+ > 25 & < = 50 μM)

C=CC[C@H](C[C@H](O)[C@H](CC1CCCCC1)NCCCC(C)C)C(=O)NCCCC (relative stereo) [Example 23, [αS-(αR*,γR*,δR*)]N-Butyl-γ-hydroxy-δ-[(4-methylpentyl)amino]-α-(2-propenyl)cyclohexanehexanamide hydrochloride]
Activity Rating (Inhibition of γ-Secretase): +++ (+++ < = 10)

CCCCNC(=O)[C@@H](C[C@H](O)[C@H](CC1CCCCC1)NCCCC1CCCC1)C(C)C (relative stereo) [Example 47, [αS(αR*,γR*,δR*)]-N-Butyl-δ-[(3-cyclopentyl)propyl]amino-γ-hydroxy-α-(1-methylethyl)cyclohexanehexanamide hydrochloride]
Activity Rating (Inhibition of γ-Secretase): +++ (+++ < = 10)

CC(C)=CCCN[C@@H](CC1CCCCC1)[C@@H](O)C[C@H](C(=O)NCC(C)C)C(C)C (relative stereo) [Example 49, [αS(αR*,γR*,δR*)]-γ-hydroxy-α-(1-methylethyl)-δ-[(4-methyl-3-pentenyl)amino]-N -(2-methylpropyl)cyclohexanehexanamide]
Activity Rating (Inhibition of γ-Secretase): +++ (+++ < = 10)

CC(C)CCCN[C@@H](CC1CCCCC1)[C@@H](O)C[C@H](C(=O)NCC(C)C)C(C)C (relative stereo) [Example 30, [αS-(αR*,γR*,δR*)]γ-hydroxy-α-(1-methylethyl)-δ-[(4-methylpentyl)amino]-N-(2-methylpropyl)cyclohexanehexanamide hydrochloride]
Activity Rating (Inhibition of γ-Secretase): +++ (+++ < = 10)

CCCCNC(=O)[C@H](Cc1ccccc1)C[C@H](O)[C@H](CC1CCCCC1)NCCCC(C)C (relative stereo) [Example 25, [αS-(αR*,γR*,δR*)]N-Butyl-γ-hydroxy-δ-[(4-methylpentyl)amino]-α-(phenylmethyl)cyclohexanehexanamide hydrochloride]
Activity Rating (Inhibition of γ-Secretase): +++ (+++ < = 10)

CC(C)CCCN[C@@H](CC1CCCCC1)[C@@H](O)C[C@H](C(=O)N[C@H](C)c1ccccc1)C(C)C (relative stereo) [Example 28, [αS-(αR*,γR*,δR*,N-(1S*))]γ-hydroxy-α-(1-methylethyl)-δ-[(4-methylpentyl)amino]-N-(1-phenylethyl)cyclohexanehexanamide hydrochloride]
Activity Rating (Inhibition of γ-Secretase): +++ (+++ < = 10)

CCCCNC(=O)[C@@H](C[C@H](O)[C@H](CC1CCCCC1)NCCCC(C)C)C(C)C (relative stereo) [Example 20, [αS-(αR*,γR*,δR*)]N-Butyl-γ-hydroxy-α-(1-methylethyl)-δ-[(4-methylpentyl)amino]cyclohexanehexanamide hydrochloride]
Activity Rating (Inhibition of γ-Secretase): +++ (+++ < = 10)

CCCCNC(=O)[C@H](C)C[C@H](O)[C@H](CC1CCCCC1)NCCCC(C)C (relative stereo) [Example 19, [αS-(αR*,γR*,δR*)]N-Butyl-γ-hydroxy-α-methyl-δ-[(4-methylpentyl)amino]cyclohexanehexanamide hydrochloride]
Activity Rating (Inhibition of γ-Secretase): +++ (+++ < = 10)

CCCCNC(=O)[C@@H](C[C@H](O)[C@H](CC1CCCCC1)NCCC(C)C)C(C)C (relative stereo) [Example 35, [αS-(αR*,γR*,δR*)]N-Butyl-γ-hydroxy-δ-[(3-methylbutyl)amino]-α-(1-methylethyl)cyclohexanehexanamide hydrochloride]
Activity Rating (Inhibition of γ-Secretase): +++ (+++ < = 10)

CCCCNC(=O)[C@@H](C[C@H](O)[C@H](CC1CCCCC1)NCc1ccc2ccccc2c1)C(C)C (relative stereo) [Example 38, [αS-(αR*,γR*,δR*)]N-Butyl-γ-hydroxy-α-(1-methylethyl)-δ-[[(2-naphthyl)methyl]amino]cyclohexanehexanamide hydrochloride]
Activity Rating (Inhibition of γ-Secretase): + (+ > 25 & < = 50 μM)
